Experimental data reported in ChEMBL document CHEMBL1133495 (Bioorg Med Chem Lett, 2000).

Legend:
[1] = target: Sodium-dependent noradrenaline transporter (Homo sapiens, UniProt P23975); assay: The compound was tested for inhibition of [3H]norepinephrine uptake in HEK cells by expressing cDNA for human norepinephrine transporter; assay type: cell-based, HEK293
[2] = target: Sodium-dependent dopamine transporter (Homo sapiens, UniProt Q01959); assay: Inhibition of [3H]dopamine uptake in HEK cells expressing human Dopamine transporter; assay type: cell-based, HEK293
Chain of Sodium-dependent dopamine transporter (Q01959 whole entry): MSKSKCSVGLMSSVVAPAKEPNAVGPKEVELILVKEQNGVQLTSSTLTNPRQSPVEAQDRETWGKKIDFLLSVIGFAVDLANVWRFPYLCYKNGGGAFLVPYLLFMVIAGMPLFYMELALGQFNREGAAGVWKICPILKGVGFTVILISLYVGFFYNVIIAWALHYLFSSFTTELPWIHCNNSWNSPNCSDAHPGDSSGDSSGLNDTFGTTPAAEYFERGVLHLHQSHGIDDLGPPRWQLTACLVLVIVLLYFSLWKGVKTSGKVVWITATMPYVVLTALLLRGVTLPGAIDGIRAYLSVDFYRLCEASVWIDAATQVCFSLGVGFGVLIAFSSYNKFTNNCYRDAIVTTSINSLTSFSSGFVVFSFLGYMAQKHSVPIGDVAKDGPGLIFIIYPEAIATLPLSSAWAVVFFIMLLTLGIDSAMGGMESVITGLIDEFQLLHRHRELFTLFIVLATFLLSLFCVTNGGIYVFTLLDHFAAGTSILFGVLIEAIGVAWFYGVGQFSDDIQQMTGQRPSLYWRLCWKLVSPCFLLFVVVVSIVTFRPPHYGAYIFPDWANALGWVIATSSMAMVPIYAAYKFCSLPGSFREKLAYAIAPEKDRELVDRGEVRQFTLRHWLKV

[3] = target: Sodium-dependent serotonin transporter (Homo sapiens, UniProt P31645); assay: The compound was tested for inhibition of [3H]-5-hydroxy tryptamine uptake in HEK cells by expressing cDNA for human […]; assay type: cell-based, HEK293
Chain of Sodium-dependent serotonin transporter (P31645 whole entry): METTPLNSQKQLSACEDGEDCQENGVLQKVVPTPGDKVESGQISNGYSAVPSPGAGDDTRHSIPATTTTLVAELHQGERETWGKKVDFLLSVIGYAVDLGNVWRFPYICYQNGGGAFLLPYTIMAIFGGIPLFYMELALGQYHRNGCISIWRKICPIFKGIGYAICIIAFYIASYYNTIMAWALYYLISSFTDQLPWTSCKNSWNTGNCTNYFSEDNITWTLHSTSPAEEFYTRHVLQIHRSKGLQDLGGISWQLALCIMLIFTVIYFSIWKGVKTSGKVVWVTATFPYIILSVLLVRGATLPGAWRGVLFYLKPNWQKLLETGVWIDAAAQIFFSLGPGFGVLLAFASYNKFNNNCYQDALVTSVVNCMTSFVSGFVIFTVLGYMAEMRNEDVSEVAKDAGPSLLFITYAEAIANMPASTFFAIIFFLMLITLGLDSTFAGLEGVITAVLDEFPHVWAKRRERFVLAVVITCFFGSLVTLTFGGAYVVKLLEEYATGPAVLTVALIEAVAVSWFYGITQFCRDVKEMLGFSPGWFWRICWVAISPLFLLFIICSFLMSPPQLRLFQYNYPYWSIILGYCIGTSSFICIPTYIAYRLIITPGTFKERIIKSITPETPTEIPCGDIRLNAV

[4] = target: Monoamine transporters; serotonin & dopamine (Homo sapiens) (UniProt P31645+Q01959); assay: Ratio of 5-hydroxy tryptamine and dopamine transporter inhibition; assay type: protein assay
Chain of Monoamine transporters; serotonin & dopamine (Homo sapiens) (P31645 whole entry, looked up): as the sequence (P31645 whole entry) above
Chain of Monoamine transporters; serotonin & dopamine (Homo sapiens) (Q01959 whole entry, looked up): as the sequence (Q01959 whole entry) above

Chain of Sodium-dependent noradrenaline transporter (P23975 whole entry): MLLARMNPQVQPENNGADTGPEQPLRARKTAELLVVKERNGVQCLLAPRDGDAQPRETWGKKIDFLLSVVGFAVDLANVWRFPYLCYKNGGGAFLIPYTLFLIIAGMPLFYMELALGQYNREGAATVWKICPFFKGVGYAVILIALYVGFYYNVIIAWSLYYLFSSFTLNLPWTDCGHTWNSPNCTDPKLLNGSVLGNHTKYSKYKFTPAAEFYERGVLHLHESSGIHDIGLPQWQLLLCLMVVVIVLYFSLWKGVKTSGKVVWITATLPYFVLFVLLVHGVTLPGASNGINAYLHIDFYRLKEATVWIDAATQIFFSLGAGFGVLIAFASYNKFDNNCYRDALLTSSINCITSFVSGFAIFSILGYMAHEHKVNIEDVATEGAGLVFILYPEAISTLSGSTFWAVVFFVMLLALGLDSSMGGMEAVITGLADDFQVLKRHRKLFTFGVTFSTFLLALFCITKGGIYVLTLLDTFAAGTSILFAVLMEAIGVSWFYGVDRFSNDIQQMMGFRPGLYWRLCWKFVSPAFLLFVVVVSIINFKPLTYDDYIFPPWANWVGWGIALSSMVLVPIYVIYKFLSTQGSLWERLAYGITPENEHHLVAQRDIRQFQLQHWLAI

Row | Structure (SMILES) | IC50 [1] | IC50 [2] | IC50 [3] | Ratio [4]
1 | CCCC1C2C3CCN2[C@H](C3)C[C@@H]1c1ccc(C)cc1 (stereo partly drawn) | 109 nM | 570 nM |  | 
2 | O=C1CN2C3CC[C@@H]2C[C@H](c2ccc(F)cc2)C13 | 620 nM | 3320 nM | 251 nM | 0.076
3 | Cc1ccc([C@H]2C[C@H]3CCC4C2[C@](C)(O)CN43)cc1 | 296 nM | 390 nM | 147 nM | 0.38
4 | Cc1ccc([C@H]2C[C@H]3CCC4C2[C@@](O)(c2ccccc2)CN43)cc1 | 11 nM |  | 7.9 nM | 
5 | CCC[C@@]1(O)CN2C3CC[C@@H]2C[C@H](c2ccc(C)cc2)C31 | 18 nM | 373 nM | 41 nM | 0.11
6 | C=C1CN2C3CC[C@@H]2C[C@H](c2ccc(C)cc2)C13 | 2.2 nM | 67 nM | 33 nM | 0.49
7 | Cc1ccc([C@H]2C[C@H]3CCC4C2[C@@](O)(c2ccc(Cl)cc2)CN43)cc1 | 23 nM | 44 nM | 13 nM | 0.3
8 | Cc1ccc([C@H]2C[C@H]3CCC4C2C(=O)CN43)cc1 | 110 nM | 538 nM | 68 nM | 0.13
